According to paper PMC8214221, “Sequence determinants in the cathelicidin LL-37 that promote inflammation via presentation of RNA to scavenger receptors” (The Journal of Biological Chemistry, 2021):
Residues, ends and D or L forms follow the SMILES beside them.

What was measured:
[1] = test system: normal human epidermal keratinocytes (NHEKs); assay: LDH release cytotoxicity assay in keratinocytes; assay type: cell-based; details: minimal concentration giving 50% LDH release by NHEKs
Summary of the method: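 Normal human epidermal keratinocytes were exposed to LL-34 parent and alanine-substituted peptides. Cytotoxicity was read as LDH release in fresh culture supernatants after treatment, using a commercial kit, and reported as the minimal concentration showing toxicity.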

[2] = test system: U1 dsRNA binding on the surface of NHEKs; assay: Surface binding of Alexa 488-labeled U1 dsRNA to NHEKs; assay type: cell-based, human; details: Alexa 488 U1 0.05-10 μg/ml + peptide 2.5 μM, 10 min on ice; fluorometer RFU, n = 3
Protocol: We also assayed the dynamics of binding of U1 dsRNA on the surface of NHEKs in the presence of LL-34 mutant peptides. NHEKs were exposed to fluorescent Alexa 488–labeled U1 at increasing concentrations (0.05–10 μg/ml) and LL-34 parent peptide, LL-34 I24A, LL-34 L31A, LL-34 K25A, and LL-34 proline at isoleucine position 20 (I20P) for 10 min on ice to allow for surface binding of U1 to cells in the presence of peptides (Fig. 5A).
Figure 5 Biophysical properties of binding of U1 dsRNA to LL-34 peptides and SRB1 protein.A, NHEKs were treated with Alexa 488–labeled U1 dsRNA or a combination of Alexa 488–labeled U1 dsRNA (0.05–10 μg/ml) and LL-34 peptides LL-34 parent, LL-34 I24A, LL-34 K25A, LL-34 L31A, and LL-34 I20P at 2.5 μM as shown. The cells were prechilled on ice for 15 min before the addition of U1 dsRNA and/or LL-34 peptides, and the surface binding of U1 dsRNA was allowed for 10 min. The amount of U1 dsRNA binding to NHEKs was assessed with a fluorometer, and data are represented as relative fluorescence units (RFUs) (n = 3). B, NHEKs were similarly treated with Alexa-labeled U1 dsRNA (1.5 μg/ml) and/or unlabeled U1 dsRNA (15 μg/ml) with the addition of LL-34 parent peptide at 2.5 μM. The experiment was performed on ice for 10 min, and the relative binding of Alexa 488 U1 dsRNA was assessed on a fluorometer and is shown as RFU (n = 3) (∗p < 0.05) one-way ANOVA. C, SAXS spectra of LL-34 peptides LL-34 parent, LL-34 F5A, LL-34 I24A, and LL-34 L31A incubated with U1 dsRNA. The peptide-U1 dsRNA (P/R) ratio is varied at 1 and 2 for all conditions. The U1 dsRNA interhelical spacing (Q) was calculated by the peak position. The domain size (L) was calculated by the full width at half maximum of the first peak. LL-34, 34-amino acid peptide; NHEKs, normal human epidermal keratinocytes; SAXS, small-angle X-ray scattering.

[3] = test system: NHEKs, IL-6 secretion in response to U1 dsRNA; assay: IL-6 secretion ELISA in NHEKs; assay type: cell-based, human; details: U1 dsRNA 2.5 μg/ml + peptide 2 μM, 18 h, n = 3
Summary of the method: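 NHEKs (also HDMECs) exposed to LL-34 parent or alanine-scan peptides at 2 μM, alone or with U1 dsRNA (2.5 μg/ml), for 18 h. Secreted IL-6 in supernatant quantified by sandwich ELISA (n = 3).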

[4] = test system: NHEKs, IL6, IFNB1, TSLP, CXCL10 mRNA; assay: qRT-PCR gene expression in NHEKs; assay type: cell-based, human; details: 18 h / 8 h (Fig. 1 legend), n = 3
Protocol: Protein levels of human IL-6 were analyzed from cell supernatant with ELISA (n = 3). Corresponding MIC values of LL-34 peptides L1A–R34A against Staphylococcus aureus USA300 are shown in the heat map. B, human dermal endothelial cells (HDMECs) were treated with either U1 dsRNA (2.5 μg/ml) or a combination of U1 dsRNA (2.5 μg/ml) and LL-34 peptides (Pep 1–Pep 34 and Pep–parent LL-34) at 2 μM for 18 h. IL-6 ELISA results are shown (n = 3). Green bars denote loss of IL-6 protein secretion compared with parent control shown in red. C, helical wheel plot for LL-34. Amino acids with green circles denote specific residues where replacement with an alanine caused the loss of IL-6 secretion compared with parent LL-34 peptide in NHEKs cotreated with U1 dsRNA. D, in the helical wheel plot for LL-34, circled green amino acids indicate that a substitution caused a loss of vetting in HDMEC. E–H, NHEKs were treated with LL-34-parent peptide (LL-34-P), LL-34-F5A, LL-34-I24A, LL-34-F27A, and LL-34-L31A at 2 μM, either individually or in combination with U1 dsRNA (2.5 μg/ml) for 8 h. Gene expression of IL-6, IFNB1, TSLP, and CXCL10 was assessed with qRT-PCR. GAPDH was used as a reference gene (n = 3) (∗p < 0.05; ∗∗∗∗p < 0.0001). One way-ANOVA was used. IL-6, interleukin 6; LL-34, 34-amino acid peptide; MIC, minimum inhibitory concentration, ns, not significant.
(§1) We further looked at mRNA abundance by quantitative RT-PCR (qRT-PCR) to evaluate gene expression for type 1 interferon IFNB1, chemokine CXCL10, and cytokines TSLP and IL6 in NHEKs treated with selected LL-34 parent, LL-34—F5A, I24A, F27A, and L31A—peptides either alone or in combination with U1 dsRNA for 18 h (Fig. 1, E–H).
RNA extracted from cells (Pure Link RNA Isolation Kit; Life Technologies) was quantified on the Nanodrop 2000/200C Spectrophotometer (Thermo Fisher Scientific). About 500 ng of purified RNA was used to synthesize complementary DNA with iScript cDNA Synthesis Kit (Bio-Rad). Predeveloped Taqman (Thermo Fisher Scientific) gene expression assays were used to evaluate mRNA transcript levels. Taqman cycling conditions were used as previously described ([9], [45]). All experiments were performed on a CFX96 system (Bio-Rad). Fold change relative to GAPDH was calculated using the Livak ΔΔCt method ([46]).

[5] = test system: S. aureus strain USA300 and SA112, GAS; assay: Bacterial growth inhibition (OD600), Gram-positive strains; assay type: cell-based, Staphylococcus aureus; group A Streptococcus; details: 0-50 µM overnight, OD 600, n = 3, S. aureus USA300, SA113 (SA112 in text)
Protocol: as §1
(§2) Methicillin-resistant S. aureus USA300 and methicillin-sensitive S. aureus SA113 (American Type Culture Collection 35556) were cultured in 3% tryptic soy broth overnight at 37 °C with shaking at 250 rpm. GAS M49 strain NZ131 was cultured in Todd Hewitt broth supplemented with 1% yeast extract overnight at 37 °C without shaking. E. coli R1 strain RS218 was cultured in LB broth overnight at 37 °C with shaking at 250 rpm. MIC values were determined using a round-bottom 96-well microdilution method with RPMI cell culture media (as a source of Ca^2+ and Mg^2+) supplemented with tryptic soy broth, Todd Hewitt broth/yeast extract, or LB to facilitate growth of the respective bacterial strains. Overnight bacterial cultures were subcultured into fresh broth and grown to midlate log phase indicated by an absorbance at 600 nm value between 0.8 and 1.0 for each bacterial strain. The absorbance was then normalized to provide a concentration of 1 × 10^7 colony-forming units/ml in RPMI medium. The LL-34 parent and alanine scan mutants were serially diluted into the 96-well microtiter plates containing prewarmed RPMI bacterial growth medium. A 10 μl aliquot of the midlate log phase bacteria was inoculated into the 96-well microtiter plates that contained 95 μl of RPMI medium with or without the LL-34 peptide dilutions and incubated for 16 to 18 h at […] with shaking at 200 rpm. Inhibition of growth was determined by measuring the absorbance at 600 nm readings of each well using a microplate reader (Infinite M200 Pro; Tecan). The MIC of each bacterial strain was determined by the lowest peptide concentration that inhibited more than 80% bacterial growth.
(§3) (A) NHEKs and HDMECs (B) were treated with LL34- parent peptide and all the 34 alanine substituted peptides (Pep L1A-Pep R34A) and LL37 at 2 µM for 16 h. IL-6 protein secretion was assessed with ELISA (n=3) (C-F) LL34-Parent, LL34 F5A, LL34 I24A, LL34 F27A, and LL34 L31A peptides were incubated with S. aureus USA 300, S. aureus SA113, Group A Streptococcus (GAS) and E. coli at increasing concentrations (0-50 µM) overnight, and bacterial culture growth was assayed as absorbance at OD 600 (n=3).

Escherichia coli = assay: Bacterial growth inhibition (OD600), E. coli; assay type: cell-based; details: 0-50 µM overnight, OD 600, n = 3
Protocol: as §1, §2, §3

SMILES | Minimal cytotoxic concentration in NHEK (LD50) [1] | Binding of Alexa 488-labeled U1 dsRNA on the NHEK cell surface [2] | IL-6 protein secretion, cotreatment with U1 dsRNA, vs U1 dsRNA + LL-34 parent [3] | Gene expression of IL6, IFNB1, and CXCL10, cotreatment with U1 dsRNA ([4]; U1 dsRNA 2.5 μg/ml + peptide 2 μM) | Gene expression of TSLP, peptide alone ([4]; peptide 2 μM alone, GAPDH reference) | Basal expression of IL6, IFNB1, and CXCL10, peptide alone ([4]; peptide 2 μM alone) | Capacity to inhibit growth of Gram-positive bacteria [5] | Action against Gram-negative E. coli (Escherichia coli)
CC[C@H](C)[C@H](NC(=O)[C@H](CCCCN)NC(=O)[C@H](CCC(=O)O)NC(=O)[C@H](CCCCN)NC(=O)[C@H](CO)NC(=O)[C@H](CCCCN)NC(=O)[C@H](CCCNC(=N)N)NC(=O)[C@H](Cc1ccccc1)NC(=O)[C@H](Cc1ccccc1)NC(=O)[C@H](CC(=O)O)NC(=O)CNC(=O)[C@H](CC(C)C)NC(=O)[C@@H](N)CC(C)C)C(=O)NCC(=O)N[C@@H](CCCCN)C(=O)N[C@@H](CCC(=O)O)C(=O)N[C@@H](Cc1ccccc1)C(=O)N[C@@H](CCCCN)C(=O)N[C@@H](CCCNC(=N)N)C(=O)N[C@H](C(=O)N[C@H](C(=O)N[C@@H](CCC(N)=O)C(=O)N[C@@H](CCCNC(=N)N)C(=O)N[C@H](C(=O)N[C@@H](C)C(=O)N[C@@H](CC(=O)O)C(=O)N[C@@H](Cc1ccccc1)C(=O)N[C@@H](CC(C)C)C(=O)N[C@@H](CCCNC(=N)N)C(=O)N[C@@H](CC(N)=O)C(=O)N[C@@H](CC(C)C)C(=O)N[C@H](C(=O)N1CCC[C@H]1C(=O)N[C@@H](CCCNC(=N)N)C(=O)O)C(C)C)[C@@H](C)CC)C(C)C)[C@@H](C)CC [LL-34—K25A] (H-LLGDFFRKSKEKIGKEFKRIVQRIADFLRNLVPR-OH) | 10 µM | enhanced binding of U1 on the cell surface | – | – | – | – | – | –
CC[C@H](C)[C@H](NC(=O)[C@H](CCCCN)NC(=O)[C@H](CCC(=O)O)NC(=O)[C@H](CCCCN)NC(=O)[C@H](CO)NC(=O)[C@H](CCCCN)NC(=O)[C@H](CCCNC(=N)N)NC(=O)[C@H](Cc1ccccc1)NC(=O)[C@H](Cc1ccccc1)NC(=O)[C@H](CC(=O)O)NC(=O)CNC(=O)[C@H](CC(C)C)NC(=O)[C@@H](N)CC(C)C)C(=O)NCC(=O)N[C@@H](CCCCN)C(=O)N[C@@H](CCC(=O)O)C(=O)N[C@@H](Cc1ccccc1)C(=O)N[C@@H](CCCCN)C(=O)N[C@@H](CCCNC(=N)N)C(=O)N[C@H](C(=O)N[C@H](C(=O)N[C@@H](CCC(N)=O)C(=O)N[C@@H](CCCNC(=N)N)C(=O)N[C@H](C(=O)N[C@@H](CCCCN)C(=O)N[C@@H](CC(=O)O)C(=O)N[C@@H](C)C(=O)N[C@@H](CC(C)C)C(=O)N[C@@H](CCCNC(=N)N)C(=O)N[C@@H](CC(N)=O)C(=O)N[C@@H](CC(C)C)C(=O)N[C@H](C(=O)N1CCC[C@H]1C(=O)N[C@@H](CCCNC(=N)N)C(=O)O)C(C)C)[C@@H](C)CC)C(C)C)[C@@H](C)CC [LL-34—F27A] (H-LLGDFFRKSKEKIGKEFKRIVQRIKDALRNLVPR-OH) | 10 µM | – | reduced secretion of IL-6 protein | reduction in gene expression | increased gene expression of TSLP | not affected | increased capacity to inhibit growth of most of the tested Gram-positive bacteria | little action
